Data on 12 compounds can be found in patent US5547951A, “Pyrido[2,3-b][1,4]benzoxazepin (and thiazepin)-6(5H)-ones and -thiones and their use in the prevention or treatment of HIV-1 infection” (Boehringer Ingelheim Pharamceuticals, Inc., priority 1994, dated 1996).

In brackets after ≈: the same amount, converted by molar mass.

The target in the first data set is T1, HIV-1 reverse transcriptase (Human immunodeficiency virus type 1 group M subtype B, UniProt P03367).
T1 construct: Reverse transcriptase enzyme from the LAV strain; made in house; host or cells: E. coli JM109, DNA clone pBRTprtl+ in expression vector pIBI21 (lac promoter)
In words: Reverse Transcriptase (RT) Assay: inhibition of RNA-dependent DNA polymerase activity, cell-free, poly r(C)/oligo d(G) template, 3H-dGTP substrate. The format is biochemical, Human Immunodeficiency Virus (HIV-1), LAV strain. The following applies: @ 10 μg/ml; room temperature, 60 minutes. The text has this:
Utilizing the Reverse Transcriptase (RT) Assay described below, compounds can be tested for their ability to inhibit the RNA-dependent DNA polymerase activity of HIV RT. Certain specific compounds, described in the Examples which appear below, were so tested. […]
Among the enzymes for which Human Immunodeficiency Virus (HIV-1) encodes is a reverse transcriptase (1), so-named because it transcribes a DNA copy from an RNA template. This activity can be quantitatively measured in a cell-free enzyme assay which has been previously described (2), and is based upon the observation that reverse transcriptase is able to use a synthetic template [poly r(C) primed with oligo d(G)] to transcribe a radio-labelled, acidprecipitable DNA strand utilizing ^3 3H-dGTP as a substrate. […]
a) Preparation of the enzyme
Reverse transcriptase enzyme from the LAV strain of Human Immuno- deficiency Virus (HIV-1) (1) was isolated from the bacterial strain JM109 (3) expressing the DNA clone pBRTprtl+ (2) which is under the control of the lac promotor in the expression vector pIBI21 (4). An overnight culture grown in 2XYT medium (37° C., 225 rpm) (5) supplemented with 100 μg/ml ampicillin for positive selection is inoculated at a 1:40 dilution into M9 medium supplemented with 10μg/ml thiamine, 0.5% casamino acids, and 50 μg/ml ampicillin (5). The culture is incubated (37° C., 225 rpm) until it reaches an 0D540 of 0.3-0.4. At that time the repressor inhibitor IPTG (isopropyl b-D-thiogalactopyranoside) is added to 0.5 mM and incubated for 2 additional hours. Bacteria are pelletted, resuspended in a 50mM Tris, 0.6mM EDTA, 0.375 M NaGl buffer and digested by the addition of lysozyme (1 mg/ml) for 30 minutes on ice. The cells are lysed by the addition to 0.2% NP-40 and brought to 1 M NAGl.
After removal of the insoluble debris by centrifugation, the protein is precipitated by the addition of 3 volumes of saturated aqueous ammonium sulfate. The enzyme is pelleted, resuspended in RT buffer (50 mM Tris pH 7.5, 1 mM EDTA, 5mM DTT, 0.1% NP-40, 0.1M NaCl, and 50% glycerol) and stored at -70° C. for further use. […]
b) Composition of 2X concentrated stock reaction mixture
The 2X concentrated stock reaction mixture is aliquoted and stored at -20° C. The mixture is stable and thawed for use in each assay. This enzyme assay has been adapted to a 96 well microtiter plate system, and has been previously described (6). Tris buffer (50 mM, pH 7.4), vehicle (solvent diluted to match the compound dilution), or compounds in vehicle are dispensed into 96-well microtiter plates (10 μl/well; 3 wells/compound). The HIV RT enzyme is thawed, diluted in 50 mM Tris pH 7.4 so that fifteen μl of diluted enzyme contain 0.001 Unit (one unit is that amount of enzyme to transform 1 micromole of substrate per minute at 25° C.), and 15 μ are dispensed per well. Twenty μl of 0.12-0.5M EDTA are added to the first three wells of the microtiter plate. EDTA thelares the Mg^++ present and prevents reverse transcription. This group serves as background polymerization which is subtracted from all other groups. Twenty-five μl of the 2X reaction mixture are added to all wells and the assay is allowed to incubate at room temperature for 60 minutes. The assay is terminated by precipitating the DNA in each well with 50 μl of 10% trichloracetic acid (TCA) in 1% sodium pyrophosphate. The microtiter plate is incubated for 15 minutes at 4° C. and the precipitate is fixed onto #30 glass fiber paper (Schletcher & Schuell) using a Skatron semi- automatic harvester. The filters are then washed with additional 5% TCA containing 1% sodium pyrophosphate, rinsed with 70% aqueous ethanol, dried, and transferred to scintillation vials (6). Each vial receives 2 mls of scintillation cocktail and is counted in a Beckman beta counter.
Calculations for percent inhibition are as follows [formula] References
As to `CSCCN1C(=O)c2ccccc2Oc2nc(Cl)ccc21` [Example 1, 2-Chloro-5-(methylthioethyl)pyrido[2,3-b][1,4]benzoxazepin-6(5H)-one], at 10 µg/mL the inhibition was 99%.
`C=CCN1C(=O)c2ccccc2Oc2nc(Cl)ccc21` [Example 2, 5-Allyl-2-chloropyrido[2,3-b][1,4]benzoxazepin-6(5H)-one] displayed an inhibition at 10 µg/mL of 96%.
The same measure, in the same setting: the value for `CN1C(=O)c2ccccc2Oc2ncccc21` [Example 3, 5-Methylpyrido[2,3-b][1,4]benzoxzepin-6(5H)-one] was 30%; that for `CCC(C)N1C(=O)c2ccccc2Oc2ncccc21` (stereo not shown) [Example 4, 5-Sec-butylpyrido[2,3-b][1,4]benzoxazepin-6(5H) -one] was 50%; that for `CCN1C(=O)c2cccc(C)c2Oc2ncccc21` [Example 5, 5-Ethyl-10-methylpyrido[2,3-b][1,4]benzoxazepin-6(5H)-one] was 83%.
Still for that read-out and setting: the value for `CN1C(=O)c2cc(N)ccc2Oc2ncccc21` [Example 6, 8-Amino-5-methylpyrido[2,3-b][1,4]benzoxazepin-6(5H)-one] was 50%; that for `C=C(Cl)CN1C(=O)c2ccccc2Oc2ncccc21` [Example 7, 5-(2-Chloro-2-propen-1-yl)pyrido[2,3-b][1,4]benzoxazepin-6(5H)-one] was 66%.
Still for that read-out and setting: then `C=C(C)CN1C(=O)c2ccccc2Oc2ncccc21` [Example 8, 5-(2-Methyl-2-propen-1-yl)pyrido[2,3-b][1,4]benzoxazepin-6(5H)-one], with 47%; and `CC=CCN1C(=O)c2ccccc2Oc2ncccc21` [Example 9, 5-(2-Buten-1-yl)pyrido[2,3-b][1,4]benzoxazepin-6(5H) -one], with 39%.
In turn, `C=CCN1C(=O)c2cccc(C)c2Oc2ncccc21` [Example 10, 5-Allyl-10-methylpyrido[2,3-b][1,4]benzoxazepin-6(5H)-one] returned an inhibition at 10 µg/mL of 84%.
Still for that read-out and setting: then `CCN1C(=O)c2ccc(C)cc2Oc2ncccc21` [Example 11, 5-Ethyl-9-methylpyrido[2,3-b][1,4]benzoxazepin-6(5H)-one], with 30%; and `CCC(=O)N1C(=O)c2cc(C)ccc2Oc2ncccc21` [Example 12, 8-Methyl-5-propionylpyrido[2,3-b][1,4]benzoxazepin-6(5H)-one], with 49%.

Test system in another data set: not listed separately
The data set can be described thus: MTT assay for cellular cytotoxicity. The format is cell-based. As to conditions: human, H9 cells, five days, read-out: Cytotoxity Assay EC50. The procedure: In order to roughly assess the cytotoxicity of the compounds of formula I, several were tested in the MTT Cellular Cytotoxicity Assay described below. Compounds having a relatively high EC50 are preferred.
MTT ASSAY FOR CELLULAR CYTOTOXICITY
The MTT [3-(4,5-dimethylthiazol-2yl)-2,5 diphenyl tetrazolium bromide) assay is based on cleavage of tetrazolium bromide by metabolically active cells, resulting in a highly quantitative blue color. This assay has been previously described (1) but has been optimized for the purposes of the testing reported herein.
The H9 cell line (2), an established human lymphoma suspension cell line grown in RPMI 1640 supplemented with 10% fetal bovine serum is used as the target cell line in the assay. Cells (100μl) are plated in microtest plate wells at a concentration of 10^5 cells per ml in the presence of varying concentrations of inhibitor. The cells are incubated at 37° C in a humidified CO2 incubator. Five days later, 20 μl of MTT (5 mg/ml in RPMI 1640, sonicated, 0.2 micron filtered, and stored at 4° C.) is added to each well. After 4 hours additional incubation at 37° 60 μl of Triton-X is added to each well and thoroughly mixed to aid the solubiltzation of the crystals. Absolute ethanol (5μ) is added to remove bubbles, and the mixture is incubated for 30 minutes at 60° C. and immediately read on a plate reader (Dynatech) at a wavelength of 570 nm. […]
As to `CSCCN1C(=O)c2ccccc2Oc2nc(Cl)ccc21` [Example 1, 2-Chloro-5-(methylthioethyl)pyrido[2,3-b][1,4]benzoxazepin-6(5H)-one], the CC50 at 120 h came to 20 µg/mL (≈ 62.3 µM).
